# Measurements reported in ChEMBL document CHEMBL6114952, “Synthesis and antitumor effects of novel betulinic acid derivatives bearing electrophilic moieties” (Bioorg Med Chem, 2025).
# Active and inactive are the calls of the source. The rule behind the calls is not given here.
# How the values were obtained:
# MCF7 [1] = assay: Induction of apoptosis in human MCF7 cells assessed as necrotic cells at 0.5 uM incubated for 24 hrs by Annexin V-FITC/PI double staining based flow cytometric analysis (reference value: 3.44 %); type: functional
# [2] = target: Serine/threonine-protein kinase mTOR (Homo sapiens) (UniProt P42345); assay: Inhibition of mTOR phosphorylation in human Trastuzumab-resistant JIMT-1 cells at 1 uM by Western blot analysis; type: cell-based; details: Trastuzumab-resistant JIMT-1 cell
# MCF7 [3] = assay: Induction of cell cycle arrest in human MCF7 cells assessed as accumulation of cells at G1 phase at 1 uM incubated for 24 hrs by PI/RNase staining based flow cytometric analysis (reference value: 52.7 %); type: functional
# MCF7 [4] = assay: Induction of apoptosis in human MCF7 cells assessed as early apoptotic cells at 1 uM incubated for 24 hrs by Annexin V-FITC/PI double staining based flow cytometric analysis (reference value: 1.56 %); type: functional
# MCF7 [5] = assay: Induction of cell cycle arrest in human MCF7 cells assessed as accumulation of cells at S phase at 1 uM incubated for 24 hrs by PI/RNase staining based flow cytometric analysis (reference value: 26.4 %); type: functional
# [6] = target: Serine/threonine-protein kinase mTOR (Homo sapiens) (UniProt P42345); assay: Inhibition of mTOR phosphorylation in human Trastuzumab-resistant JIMT-1 cells at 1 uM cotreated with trastuzumab by Western blot analysis; type: cell-based; details: Trastuzumab-resistant JIMT-1 cell
# MCF7 [7] = assay: Induction of cell cycle arrest in human MCF7 cells assessed as accumulation of cells at S phase at 2 uM incubated for 24 hrs by PI/RNase staining based flow cytometric analysis (reference value: 26.4 %); type: functional
# MCF7 [8] = assay: Induction of cell cycle arrest in human MCF7 cells assessed as accumulation of cells at G2/M phase at 1 uM incubated for 24 hrs by PI/RNase staining based flow cytometric analysis (reference value: 20.8 %); type: functional
# MCF7 [9] = assay: Induction of ROS generation in human MCF7 cells assessed as increase in intracellular ROS level at 0.5 to 2 uM incubated for 24 hrs by DCFH-DA staining based microscopic analysis; type: functional, cell-based; details: dose 0.5-2 µM
# [10] = target: Serine/threonine-protein kinase mTOR (Homo sapiens) (UniProt P42345); assay: Inhibition of mTOR phosphorylation in human MCF7 cells incubated for 24 hrs by Western blot analysis; type: cell-based; details: dose 0.5-2 µM
# [11] = Antiproliferative activity against human Trastuzumab-resistant JIMT-1 cells at 0.5 uM in presence of trastuzumab by MTT assay relative to control; type: functional, Trastuzumab-resistant JIMT-1 cell
# MCF7 [12] = assay: Induction of apoptosis in human MCF7 cells assessed as necrotic cells at 2 uM incubated for 24 hrs by Annexin V-FITC/PI double staining based flow cytometric analysis (reference value: 3.44 %); type: functional
# MDA-MB-231 = assay: Antiproliferative activity against human MDA-MB-231 cells assessed as inhibition of cell proliferation incubated for 48 hrs by MTT assay; type: functional, cell-based; details: MDA-MB-231, 48 h
# HeLa [13] = assay: Inhibition of cell migration in human HeLa cells incubated for 12 to 24 hrs by wound healing assay; type: functional, cell-based; details: dose 1-4 µM, time 12-24 hrs
# MCF7 [14] = assay: Induction of cell cycle arrest in human MCF7 cells assessed as accumulation of cells at S phase at 0.5 uM incubated for 24 hrs by PI/RNase staining based flow cytometric analysis (reference value: 26.4 %); type: functional
# [15] = system: Trastuzumab-resistant JIMT-1 cell; assay: Inhibition of AKT phosphorylation in human Trastuzumab-resistant JIMT-1 cells at 1 uM cotreated with trastuzumab by Western blot analysis; type: cell-based
# MCF7 [16] = assay: Induction of apoptosis in human MCF7 cells assessed as late apoptotic cells at 1 uM incubated for 24 hrs by Annexin V-FITC/PI double staining based flow cytometric analysis (reference value: 11.8 %); type: functional
# MCF7 [17] = assay: Induction of cell cycle arrest in human MCF7 cells assessed as accumulation of cells at G1 phase at 0.5 uM incubated for 24 hrs by PI/RNase staining based flow cytometric analysis (reference value: 52.7 %); type: functional
# MCF7 [18] = assay: Induction of autophagy in human MCF7 cells incubated for 24 hrs by MDC probe based confocal microscopy analysis; type: functional, cell-based; details: dose 0.5-2 µM
# MCF7 [19] = assay: Induction of apoptosis in human MCF7 cells assessed as late apoptotic cells at 0.5 uM incubated for 24 hrs by Annexin V-FITC/PI double staining based flow cytometric analysis (reference value: 11.8 %); type: functional
# MCF7 [20] = assay: Induction of cell cycle arrest in human MCF7 cells assessed as accumulation of cells at G2/M phase at 2 uM incubated for 24 hrs by PI/RNase staining based flow cytometric analysis (reference value: 20.8 %); type: functional
# MCF7 [21] = assay: Antitumor activity against human MCF7 cells xenografted in female BALB/c mouse assessed as tumor growth inhibition at 5 mg/kg, iv administered daily for 14 days relative to control; type: functional; details: MCF7, 336 h, time 14 day, read-out: TGI
# MCF7 [22] = assay: Induction of apoptosis in human MCF7 cells assessed as viable cells at 0.5 uM incubated for 24 hrs by Annexin V-FITC/PI double staining based flow cytometric analysis (reference value: 83.2 %); type: functional; details: read-out: Activity
# MCF7 [23] = assay: Inhibition of AKT phosphorylation in human MCF7 cells incubated for 24 hrs by Western blot analysis; type: cell-based; details: dose 0.5-2 µM
# HeLa [24] = assay: Antiproliferative activity against human HeLa cells assessed as inhibition of cell proliferation incubated for 48 hrs by MTT assay; type: functional, cell-based
# MCF7 [25] = assay: Induction of apoptosis in human MCF7 cells assessed as late apoptotic cells at 2 uM incubated for 24 hrs by Annexin V-FITC/PI double staining based flow cytometric analysis (reference value: 11.8 %); type: functional
# MCF7 [26] = assay: Induction of apoptosis in human MCF7 cells assessed as viable cells at 2 uM incubated for 24 hrs by Annexin V-FITC/PI double staining based flow cytometric analysis (reference value: 83.2 %); type: functional; details: read-out: Activity
# MCF7 [27] = assay: Induction of apoptosis in human MCF7 cells assessed as early apoptotic cells at 0.5 uM incubated for 24 hrs by Annexin V-FITC/PI double staining based flow cytometric analysis (reference value: 1.56 %); type: functional
# MCF7 [28] = assay: Induction of apoptosis in human MCF7 cells assessed as viable cells at 1 uM incubated for 24 hrs by Annexin V-FITC/PI double staining based flow cytometric analysis (reference value: 83.2 %); type: functional; details: read-out: Activity
# MCF7 [29] = assay: Induction of cell cycle arrest in human MCF7 cells assessed as accumulation of cells at G2/M phase at 0.5 uM incubated for 24 hrs by PI/RNase staining based flow cytometric analysis (reference value: 20.8 %); type: functional
# MCF7 [30] = assay: Antiproliferative activity against human MCF7 cells assessed as inhibition of cell proliferation incubated for 48 hrs by MTT assay; type: functional, cell-based; details: MCF7, 48 h
# MCF7 [31] = assay: Inhibition of cell migration in human MCF7 cells incubated for 12 to 24 hrs by wound healing assay; type: functional, cell-based; details: dose 1-4 µM, time 12-24 hrs
# MCF7 [32] = assay: Induction of apoptosis in human MCF7 cells assessed as necrotic cells at 1 uM incubated for 24 hrs by Annexin V-FITC/PI double staining based flow cytometric analysis (reference value: 3.44 %); type: functional
# MCF7 [33] = assay: Induction of apoptosis in human MCF7 cells assessed as early apoptotic cells at 2 uM incubated for 24 hrs by Annexin V-FITC/PI double staining based flow cytometric analysis (reference value: 1.56 %); type: functional
# JIMT-1 = assay: Synergistic antiproliferative activity against human JIMT-1 cells assessed inhibition of cell growth at 0.25 to 1 uM by MTT assay; type: functional, cell-based; details: dose 0.25-1 µM
# [34] = Toxicity in female BALB/c mouse xenografted with human MCF7 cells assessed as body weight loss at 5 mg/kg, iv measured daily for 14 days; type: organism-based; details: in vivo, 336 h, time 14 day
# MCF7 [35] = assay: Induction of cell cycle arrest in human MCF7 cells assessed as accumulation of cells at G1 phase at 2 uM incubated for 24 hrs by PI/RNase staining based flow cytometric analysis (reference value: 52.7 %); type: functional
# MCF7 [36] = assay: Inhibition of colony formation in human MCF7 cells assessed as decrease in colonies incubated for 10 days with replacement of medium for every 3 days by crystal violet staining based assay; type: functional, cell-based; details: dose 0.5-2 µM, time 10.0 day
# [37] = system: Trastuzumab-resistant JIMT-1 cell; assay: Inhibition of AKT phosphorylation in human Trastuzumab-resistant JIMT-1 cells at 1 uM by Western blot analysis; type: cell-based
# [38] = Antiproliferative activity against human Trastuzumab-resistant JIMT-1 cells at 0.5 uM by MTT assay relative to control; type: functional, Trastuzumab-resistant JIMT-1 cell
compound,measurement,setting,value
C=C(C)[C@@H]1CC[C@]2(C(=O)O)CC[C@]3(C)[C@H](CC[C@@H]4[C@@]5(C)CC[C@H](OC(=O)N6CCN(C(=O)CCl)CC6)C(C)(C)[C@@H]5CC[C@]43C)[C@@H]12,Activity,MCF7 [1],2.49%
same,inhibition,[2],Active
same,Activity,MCF7 [3],56.4%
same,Activity,MCF7 [4],1.99%
same,Activity,MCF7 [5],19.1%
same,inhibition,[6],Active
same,Activity,MCF7 [7],19.8%
same,Activity,MCF7 [8],24.3%
same,Activity,MCF7 [9],Active
same,inhibition,[10],Dose-dependent-effect
same,Activity,[11],59%
same,Activity,MCF7 [12],2.93%
same,IC50,MDA-MB-231,1660 nM
same,inhibition,HeLa [13],Dose-dependent-effect
same,Activity,MCF7 [14],22%
same,inhibition,[15],Active
same,Activity,MCF7 [16],19.2%
same,Activity,MCF7 [17],54.7%
same,Activity,MCF7 [18],Dose-dependent-effect
same,Activity,MCF7 [19],15.3%
same,Activity,MCF7 [20],27.2%
same,inhibition in vivo at 5 mg/kg,MCF7 [21],36%
same,viability at 0.5 µM,MCF7 [22],79.7%
same,inhibition,MCF7 [23],Dose-dependent-effect
same,IC50,HeLa [24],1110 nM
same,Activity,MCF7 [25],22%
same,viability at 2 µM,MCF7 [26],72.3%
same,Activity,MCF7 [27],2.47%
same,viability at 1 µM,MCF7 [28],74.9%
same,Activity,MCF7 [29],23.4%
same,IC50,MCF7 [30],1090 nM
same,inhibition,MCF7 [31],Dose-dependent-effect
same,Activity,MCF7 [32],3.93%
same,Activity,MCF7 [33],2.72%
same,Activity,JIMT-1,Active
same,Activity,[34],Non-toxic
same,Activity,MCF7 [35],53.4%
same,inhibition,MCF7 [36],Dose-dependent-effect
same,inhibition,[37],Active
same,Activity,[38],19.9%
